Results published in PubChem BioAssay (NCI).
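Five concentrations, 48 hours, 96-well plates. GI50: concentration for 50% inhibition of growth. TGI denotes the concentration required for complete inhibition of growth.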

Key:
Assay in all cases: inhibition of tumour cell growth, NCI panel, 48 h
786-0 renal = system: 786-0 renal
A498 renal = system: A498 renal
LOX IMVI melanoma = system: LOX IMVI melanoma
NCI-H522 lung = system: NCI-H522 lung
U251 CNS = system: U251 CNS
UACC-257 melanoma = system: UACC-257 melanoma
UACC-62 melanoma = system: UACC-62 melanoma
UO-31 renal = system: UO-31 renal
MCF7 breast = system: MCF7 breast

| Compound | TGI (786-0 renal) [µM] | TGI (A498 renal) [µM] | TGI (LOX IMVI melanoma) [µM] | TGI (NCI-H522 lung) [µM] | TGI (U251 CNS) [µM] | TGI (UACC-257 melanoma) [µM] | TGI (UACC-62 melanoma) [µM] | TGI (UO-31 renal) [µM] | GI50 (786-0 renal) [µM] | GI50 (A498 renal) [µM] | GI50 (LOX IMVI melanoma) [µM] | GI50 (MCF7 breast) [µM] | TGI (MCF7 breast) [µM] | GI50 (NCI-H522 lung) [µM] | GI50 (U251 CNS) [µM] | GI50 (UACC-257 melanoma) [µM] | GI50 (UO-31 renal) [µM] | GI50 (UACC-62 melanoma) [µM] |
| --- | --- | --- | --- | --- | --- | --- | --- | --- | --- | --- | --- | --- | --- | --- | --- | --- | --- | --- |
| COc1ccc(C2CC(=O)c3c(O)cc(O)cc3O2)cc1O (stereo unspecified) | > 100 | > 100 | > 100 | > 100 | > 100 | > 100 | > 100 | > 100 | – | – | – | – | – | – | – | – | – | – |
| O=C1[C@@H]2C(c3ccccc3Br)=NO[C@@H]2C(=O)N1c1ccc(Cc2ccc(N3C(=O)[C@H]4C(c5ccccc5Br)=NO[C@H]4C3=O)cc2)cc1 | > 100 | > 100 | > 100 | – | > 100 | > 100 | > 100 | > 100 | – | – | – | – | – | – | – | – | – | – |
| CS/C(=N\C(=S)N(C)C)N(c1ccccc1)c1nc(=[N+](C)C)ss1 | 39.3 | 7.04 | 18.1 | 5.36 | 20 | 17.3 | 19.2 | > 100 | – | – | – | – | – | – | – | – | – | – |
| Cc1ccccc1NC(=O)C(=O)C(C#N)c1ccc(Cl)cc1 (stereo unspecified) | > 100 | > 100 | 31 | > 100 | > 100 | > 100 | > 100 | > 100 | – | – | – | – | – | – | – | – | – | – |
| CCN(CC)CCOCC[C@H]1CC[C@H]2[C@@H]3[C@H](C)Cc4cc(OS(N)(=O)=O)ccc4[C@H]3CC[C@]12C | 2.6 | 3.96 | 2.77 | 3.39 | 2.59 | 3.34 | – | 3.7 | 1.28 | 1.54 | 1.33 | 0.219 | 2.28 | 1.52 | 1.18 | 1.74 | 1.54 | – |
| COc1ccc(C(=O)c2cc(OC)c(OC)c(OC)c2)cc1 | > 79.2 | – | > 82.2 | 0.238 | 9.74 | > 100 | > 9.77 | 61.9 | – | – | – | – | > 100 | – | – | – | – | – |
| COc1c(C=O)c2c(c(OC)c1OC)-c1ccc(OC)c(=O)cc1[C@@H](NC(C)=O)CC2 | > 75.6 | 14.8 | 49.8 | – | > 25.5 | > 88.8 | > 92.3 | > 100 | – | – | – | – | 28.4 | – | – | – | – | – |
| Nc1ccc2c(c1)C(=O)C(=O)c1c-2nc2ccccn12 | 4.86 | 3.37 | 1.33 | – | 2.58 | 2.28 | 0.782 | 2.64 | 2.24 | 1.57 | 0.327 | 1.06 | 3.07 | – | 1.28 | 1.08 | 1.28 | 0.266 |
| Cc1ccc(S(=O)(=O)N[C@H](C(=O)O)c2ccccc2)cc1 | > 100 | > 100 | > 100 | > 100 | > 100 | > 100 | > 100 | > 100 | – | – | – | – | – | – | – | – | – | – |
| CCOC(=O)Nc1cc2nnc(-c3ccccc3)nc2c(N)n1 | 27.1 | – | 30.8 | – | > 100 | > 100 | > 100 | 84.7 | – | – | – | – | – | – | – | – | – | – |
| COc1cccc2c1C(=O)C=CC2=O | 23.9 | 29.9 | – | 5 | 13.9 | 29 | 25.3 | 28.9 | – | – | – | – | 4.82 | – | – | – | – | – |
